From patent US9833497B2, “Human originated EGF domain proteins and use of the same” (CHENGDU SOURCEBIO LIMITED-LIABILITY COMPANY, priority 2013, dated 2017)

What was measured:
Assay type in all cases: cell-based
[1] = tested on: E. coli DH5α; experiment: Antibacterial activity: MIC and growth curve against E. coli DH5α in 96-well plate; details: minimal inhibitory concentration against E. coli DH5α; 96-well plate, 5×10^5 CFU/mL, 37° C., judged after 8 h
Method in brief: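 MIC taken as lowest protein level with no bacterial growth, tracked by A600 every 30 min during 37 °C, 175 rpm culture. Two-fold protein series 50-12.5 μg/mL final, triplicate wells, against 5×10^5 CFU/mL of LB-washed mid-log cells.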

[2] = tested on: E. coli BL21; experiment: MIC against Gram-negative bacteria: E. coli BL21; details: 5×10^5 CFU/mL
Method in brief: (§1)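 MIC = lowest concentration of recombinant protein showing no growth. Test proteins: purified human-derived EGF domain proteins, two-fold dilution series, three wells per concentration; inoculum 5×10^5 CFU/mL in LB; incubation 37° C with shaking at 175 rpm.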

[3] = tested on: Pseudomonas aeruginosa; experiment: MIC against Gram-negative bacteria: Pseudomonas aeruginosa; details: 5×10^5 CFU/mL
Method in brief: as §1

[4] = tested on: Klebsiella pneumonia; experiment: MIC against Gram-negative bacteria: Klebsiella pneumonia; details: 5×10^5 CFU/mL
Method in brief: as §1

[5] = tested on: Enterobacter cloacae; experiment: MIC against Gram-negative bacteria: Enterobacter cloacae; details: 5×10^5 CFU/mL
Method in brief: as §1

[6] = tested on: Aeromonas hydrophila; experiment: MIC against Gram-negative bacteria: Aeromonas hydrophila; details: 5×10^5 CFU/mL
Method in brief: as §1

[7] = tested on: Citrobacter diversus; experiment: MIC against Gram-negative bacteria: Citrobacter diversus; details: 5×10^5 CFU/mL
Method in brief: as §1

[8] = tested on: Moraxella catarrhalis; experiment: MIC against Gram-negative bacteria: Moraxella catarrhalis; details: 5×10^5 CFU/mL
Method in brief: as §1

[9] = tested on: Proteus mirabilis; experiment: MIC against Gram-negative bacteria: Proteus mirabilis; details: 5×10^5 CFU/mL
Method in brief: as §1

[10] = tested on: Proteus vulgaris; experiment: MIC against Gram-negative bacteria: Proteus vulgaris; details: 5×10^5 CFU/mL
Method in brief: as §1

[11] = tested on: Serratia marcescens; experiment: MIC against Gram-negative bacteria: Serratia marcescens; details: 5×10^5 CFU/mL
Method in brief: as §1

[12] = E. coli BL21, 10 h cultivation at 37° C.
[13] = P. aeruginosa, 10 h cultivation at 37° C.
[14] = K. pneumonia, 10 h cultivation at 37° C.
[15] = E. cloacae, 10 h cultivation at 37° C.
[16] = A. hydrophila, 10 h cultivation at 37° C.
[17] = C. diversus, 10 h cultivation at 37° C.
[18] = M. catarrhalis, 10 h cultivation at 37° C.
[19] = P. mirabilis, 10 h cultivation at 37° C.
[20] = P. vulgaris, 10 h cultivation at 37° C.
[21] = S. marcescens, 10 h cultivation at 37° C.
[22] = 10 h cultivation at 37° C., two-fold serial dilution

With “PRT1423 (PVDPCFRANCEYQCQPLNQTSYLCVCAEGFAPIPHEPHRCQ; listed as Homo sapiens)” the MIC [1] was 50 µg/mL, the “MIC against E. coli BL21” value [2, 12] was 12.5 µg/mL and the “MIC against P. aeruginosa” value ([3]; Pseudomonas aeruginosa, 10 h cultivation at 37° C.) was 12.5 µg/mL. For the same substance, the “MIC against K. pneumonia” value ([4]; Klebsiella pneumonia, 10 h cultivation at 37° C.) was 12.5 µg/mL, the “MIC against E. cloacae” value ([5]; Enterobacter cloacae, 10 h cultivation at 37° C.) was 12.5 µg/mL and the “MIC against A. hydrophila” value ([6]; Aeromonas hydrophila, 10 h cultivation at 37° C.) was 12.5 µg/mL. The “MIC against C. diversus” value ([7]; Citrobacter diversus, 10 h cultivation at 37° C.) was 25 µg/mL, the “MIC against M. catarrhalis” value ([8]; Moraxella catarrhalis, 10 h cultivation at 37° C.) was 50 µg/mL and the “MIC against P. mirabilis” value ([9]; Proteus mirabilis, 10 h cultivation at 37° C.) was 12.5 µg/mL. For the same substance, the “MIC against P. vulgaris” value ([10]; Proteus vulgaris, 10 h cultivation at 37° C.) was 50 µg/mL and the “MIC against S. marcescens” value ([11]; Serratia marcescens, 10 h cultivation at 37° C.) was 12.5 µg/mL.
With “PRT93 (PLLHCAPGFCFPGVACIQTESGARCGPCPAGFTGNGSHCT; listed as Homo sapiens)” the MIC [1] was 50 µg/mL, the “MIC (μg/mL) E. coli BL21” value ([2]; E. coli BL21, 96-well plate, 37° C., 10 h) was 12.5 µg/mL and the “MIC (μg/mL) P. aeruginosa” value ([3]; Pseudomonas aeruginosa, 96-well plate, 37° C., 10 h) was 50 µg/mL. For the same substance, the “MIC (μg/mL) K. pneumonia” value ([4]; Klebsiella pneumonia, 96-well plate, 37° C., 10 h) was 12.5 µg/mL, the “MIC (μg/mL) E. cloacae” value ([5]; Enterobacter cloacae, 96-well plate, 37° C., 10 h) was 12.5 µg/mL and the “MIC (μg/mL) A. hydrophila” value ([6]; Aeromonas hydrophila, 96-well plate, 37° C., 10 h) was 25 µg/mL. The “MIC (μg/mL) C. diversus” value ([7]; Citrobacter diversus, 96-well plate, 37° C., 10 h) was 100 µg/mL, the “MIC (μg/mL) M. catarrhalis” value ([8]; Moraxella catarrhalis, 96-well plate, 37° C., 10 h) was 25 µg/mL and the “MIC (μg/mL) P. mirabilis” value ([9]; Proteus mirabilis, 96-well plate, 37° C., 10 h) was 12.5 µg/mL. The “MIC (μg/mL) P. vulgaris” value ([10]; Proteus vulgaris, 96-well plate, 37° C., 10 h) was 12.5 µg/mL and the “MIC (μg/mL) S. marcescens” value ([11]; Serratia marcescens, 96-well plate, 37° C., 10 h) was 12.5 µg/mL.
For “PRT151 (GCKYLSDINITRYNINCRENRACNELFHCQCDPGYAPPDCE; listed as Homo sapiens)”, the MIC [1] was 12.5 µg/mL, the “MIC (μg/mL) E. coli BL21” value [2, 12] was 50 µg/mL and the “MIC (μg/mL) P. aeruginosa” value [3, 13] was 12.5 µg/mL. For the same substance, the “MIC (μg/mL) K. pneumonia” value [4, 14] was 50 µg/mL, the “MIC (μg/mL) E. cloacae” value [5, 15] was 12.5 µg/mL and the “MIC (μg/mL) A. hydrophila” value [6, 16] was 50 µg/mL. For the same substance, the “MIC (μg/mL) C. diversus” value [7, 17] was 25 µg/mL, the “MIC (μg/mL) M. catarrhalis” value [8, 18] was 12.5 µg/mL and the “MIC (μg/mL) P. mirabilis” value [9, 19] was 25 µg/mL. The “MIC (μg/mL) P. vulgaris” value [10, 20] was 50 µg/mL and the “MIC (μg/mL) S. marcescens” value [11, 21] was 12.5 µg/mL.
With “PRT318 (DVDECEKNPCAGGECINNQGSYTCQCRAGYQSTLTRTECR; listed as Homo sapiens)” the MIC [1] was 12.5 µg/mL, the MIC [2, 12] was 12.5 µg/mL and the MIC [3, 13] was 12.5 µg/mL. It also gave an MIC [4, 14] of 50 µg/mL, an MIC [5, 15] of 12.5 µg/mL and an MIC [6, 16] of 50 µg/mL. The MIC [7, 17] was 12.5 µg/mL, the MIC [8, 18] was 50 µg/mL and the MIC [9, 19] was 12.5 µg/mL. The MIC [10, 20] was 25 µg/mL and the MIC [11, 21] was 50 µg/mL.
“PRT1046 (WGFSCNASCQCAHEAVCSPQTGACTCTPGWHGAHCQ; listed as Homo sapiens)” was tested, and the MIC [1] was 50 µg/mL, the “MIC E. coli BL21” value [2, 22] was 25 µg/mL and the “MIC P. aeruginosa” value [3, 22] was 50 µg/mL. For the same substance, the “MIC K. pneumonia” value [4, 22] was 25 µg/mL, the “MIC E. cloacae” value [5, 22] was 25 µg/mL and the “MIC A. hydrophila” value [6, 22] was 12.5 µg/mL. The “MIC C. diversus” value [7, 22] was 50 µg/mL, the “MIC M. catarrhalis” value [8, 22] was 50 µg/mL and the “MIC P. mirabilis” value [9, 22] was 50 µg/mL. The “MIC P. vulgaris” value [10, 22] was 25 µg/mL and the “MIC S. marcescens” value [11, 22] was 12.5 µg/mL.
In the case of “PRT255 (DVDECVGLQPVCPQGTTCINTGGSFQCVSPECPEG; listed as Homo sapiens)”, the MIC [1] was 12.5 µg/mL, the “MIC (μg/mL) E. coli BL21” value [2, 12] was 12.5 µg/mL and the “MIC (μg/mL) P. aeruginosa” value [3, 13] was 12.5 µg/mL. For the same substance, the “MIC (μg/mL) K. pneumonia” value [4, 14] was 12.5 µg/mL, the “MIC (μg/mL) E. cloacae” value [5, 15] was 12.5 µg/mL and the “MIC (μg/mL) A. hydrophila” value [6, 16] was 25 µg/mL. The “MIC (μg/mL) C. diversus” value [7, 17] was 12.5 µg/mL, the “MIC (μg/mL) M. catarrhalis” value [8, 18] was 25 µg/mL and the “MIC (μg/mL) P. mirabilis” value [9, 19] was 100 µg/mL. The “MIC (μg/mL) P. vulgaris” value [10, 20] was 25 µg/mL and the “MIC (μg/mL) S. marcescens” value [11, 21] was 12.5 µg/mL.
